# Results published in patent publication US10550105B2 (Ribon Therapeutics Inc., priority 2018, dated 2020).
# Molecular target: PARP7 (Homo sapiens (Human), UniProt Q7Z3E1)
# Assay: Enzymatic assay for inhibition of PARP7: TR-FRET displacement of biotinylated Probe A from the TIPARP active site
# Assay type: binding
# Conditions: Table A-1
# Outline: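 Compound dose-response series were incubated with TIPARP and biotinylated Probe A, with a final 30 min step at 25 °C. TR-FRET was read at 320 nm excitation, 615/665 nm emission and 90 μs delay, using the 665/615 ratio to measure complex formation. % inhibition was fitted with a floating or fixed (1) Hill coefficient.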
# Chain of PARP7 (Q7Z3E1 whole entry): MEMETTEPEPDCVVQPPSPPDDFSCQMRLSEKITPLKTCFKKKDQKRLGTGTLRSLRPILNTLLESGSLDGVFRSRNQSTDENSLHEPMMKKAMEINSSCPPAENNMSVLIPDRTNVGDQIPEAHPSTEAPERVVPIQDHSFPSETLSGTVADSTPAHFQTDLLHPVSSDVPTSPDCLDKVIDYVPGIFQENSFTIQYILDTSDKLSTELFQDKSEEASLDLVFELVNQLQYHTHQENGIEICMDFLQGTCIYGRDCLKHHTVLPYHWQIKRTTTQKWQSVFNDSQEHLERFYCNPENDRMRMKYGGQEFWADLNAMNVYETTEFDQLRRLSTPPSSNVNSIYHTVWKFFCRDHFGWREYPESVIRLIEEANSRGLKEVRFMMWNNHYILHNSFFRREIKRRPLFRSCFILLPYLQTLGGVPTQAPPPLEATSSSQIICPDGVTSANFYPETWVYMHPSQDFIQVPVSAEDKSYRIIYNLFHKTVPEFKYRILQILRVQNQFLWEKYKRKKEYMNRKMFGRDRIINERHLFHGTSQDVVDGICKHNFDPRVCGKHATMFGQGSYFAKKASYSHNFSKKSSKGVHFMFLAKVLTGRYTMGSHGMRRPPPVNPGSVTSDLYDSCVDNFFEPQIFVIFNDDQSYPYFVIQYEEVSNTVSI
row,SMILES,IC50 [nM]
1,"C[C@@H](COCCS(=O)(=O)N1CCN(c2ncc(C(F)(F)F)cn2)CC1)Nc1cn[nH]c(=O)c1C(F)(F)F [Example 620, (S)-4-(Trifluoromethyl)-5-((1-(2-((4-(5-(trifluoromethyl)pyrimidin-2-yl)piperazin-1-yl)sulfonyl)ethoxy)propan-2-yl)amino)pyridazin-3(2H)-one]",< 100
2,"O=c1[nH]ncc(N2Cc3cccc(OCCO)c3C2)c1C1CC1 [Example 186, 4-Cyclopropyl-5-(4-(2-hydroxyethoxy)isoindolin-2-yl)pyridazin-3(2H)-one]",≥ 1000
3,"O=C(C[C@H]1CC[C@@H](CNc2cn[nH]c(=O)c2C(F)(F)F)O1)N1CCN(c2ncc(Cl)cn2)CC1 (single isomer, unassigned) [Example 567 Isomer A]",< 100
4,"C[C@@H](COCCC(=O)N1CCN(c2ncc(Cl)cn2)CC1)Nc1cn[nH]c(=O)c1Cl [Example 598, 4-Chloro-5-[[(2S)-1-[3-[4-(5-chloropyrimidin-2-yl)piperazin-1-yl]-3-oxopropoxy]propan-2-yl]amino]-2,3-dihydropyridazin-3-one]",< 100
5,"Cc1ccc(N2CCN(C(=O)CCOC[C@H](C)Oc3cn[nH]c(=O)c3C(F)(F)F)CC2)nc1 [Example 682, (S)-5-((1-(3-(4-(5-Methylpyridin-2-yl)piperazin-1-yl)-3-oxopropoxy)propan-2-yl)oxy)-4-(trifluoromethyl)pyridazin-3(2H)-one]",< 100
6,"NCCOc1cccc2c1CN(c1cn[nH]c(=O)c1Cl)C2 [Example 163, 5-(4-(2-Aminoethoxy)isoindolin-2-yl)-4-chloropyridazin-3(2H)-one]",≥ 1000
7,"C[C@@H](COCCC(=O)N1CCN(c2ncc(Cl)cn2)CC1)Nc1cn[nH]c(=O)c1C(F)(F)F [Example 562, 5-[[(2S)-1-[3-[4-(5-Chloropyrimidin-2-yl)piperazin-1-yl]-3-oxopropoxy]propan-2-yl]amino]-4-(trifluoromethyl)-2,3-dihydropyridazin-3-one]",< 100
8,"O=c1[nH]ncc(N2Cc3cccc(OCC4CCCOC4)c3C2)c1C(F)(F)F (centres unmarked) [Example 199, 5-(4-((Tetrahydro-2H-pyran-3-yl)methoxy)isoindolin-2-yl)-4-(trifluoromethyl)pyridazin-3(2H)-one]",< 100
9,"O=C(CCOC[C@H](CO)Nc1cn[nH]c(=O)c1C(F)(F)F)N1CCN(c2ccc(C(F)(F)F)cn2)CC1 [Example 604, 5-[[(2S)-1-Hydroxy-3-(3-oxo-3-[4-[5-(trifluoromethyl)pyridin-2-yl]piperazin-1-yl]propoxy)propan-2-yl]amino]-4-(trifluoromethyl)-2,3-dihydropyridazin-3-one]",< 100
10,"N#Cc1ccc(N2CCN(C(=O)c3cccc(OC[C@@H]4C[C@@H](C#N)CN4c4cn[nH]c(=O)c4C(F)(F)F)c3)CC2)nc1 [Example 464, 6-(4-(3-(((2S,4R)-4-Cyano-1-(6-oxo-5-(trifluoromethyl)-1,6-dihydropyridazin-4-yl)pyrrolidin-2-yl)methoxy)benzoyl)piperazin-1-yl)nicotinonitrile]",≥ 1000
11,"N#Cc1ccc(N2CCN(C(=O)C[C@H]3CC[C@H](COc4cn[nH]c(=O)c4C(F)(F)F)N3)CC2)nc1 [Example 638, 6-(4-(2-((2R,5R)-5-(((6-Oxo-5-(trifluoromethyl)-1,6-dihydropyridazin-4-yl)oxy)methyl)pyrrolidin-2-yl)acetyl)piperazin-1-yl)nicotinonitrile]",100 to 1000
12,"O=c1[nH]ncc(N2Cc3ccc(Cl)nc3C2)c1C(F)(F)F [Example 304, 5-(2-Chloro-5,7-dihydro-6H-pyrrolo[3,4-b]pyridin-6-yl)-4-(trifluoromethyl)pyridazin-3(2H)-one]",< 100
13,"O=C(c1cccc(OC[C@H]2c3ccccc3CN2c2cn[nH]c(=O)c2C(F)(F)F)c1)N1CCn2c(nnc2C(F)(F)F)C1 [Example 372, (R)-4-(Trifluoromethyl)-5-(1-((3-(3-(trifluoromethyl)-5,6,7,8-tetrahydro-[1,2,4]triazolo[4,3-a]pyrazine-7-carbonyl)phenoxy)methyl)isoindolin-2-yl)pyridazin-3(2H)-one]",≥ 1000
14,"CN(C)CC(COCCC(=O)N1CCN(c2ccc(C#N)cn2)CC1)Oc1cn[nH]c(=O)c1C(F)(F)F (centres unmarked) [Example 542, 6-(4-[3-[3-(Dimethylamino)-2-[[6-oxo-5-(trifluoromethyl)-1,6-dihydropyridazin-4-yl]oxy]propoxy]propanoyl]piperazin-1-yl)pyridine-3-carbonitrile]",< 100
15,"N#Cc1ccc(N2CCN(C(=O)c3ccc(OCCc4cccc5c4CN(c4cn[nH]c(=O)c4C(F)(F)F)C5)cc3)CC2)nc1 [Example 402, 6-(4-(4-(2-(2-(6-Oxo-5-(trifluoromethyl)-1,6-dihydropyridazin-4-yl)isoindolin-4-yl)ethoxy)benzoyl)piperazin-1-yl)nicotinonitrile]",< 100
16,"CC(C)Oc1cccc2c1CN(c1cn[nH]c(=O)c1C(F)(F)F)C2 [Example 193, 5-(4-Isopropoxyisoindolin-2-yl)-4-(trifluoromethyl)pyridazin-3(2H)-one]",< 100

row,SMILES,IC50 [nM]
1,"O=C(C[C@H]1CC[C@@H](COc2cn[nH]c(=O)c2C(F)(F)F)O1)N1CCN(c2ccc(C(F)(F)F)cn2)CC1 (single isomer, unassigned) [Example 545 Isomer B]",100 to 1000
2,"N#Cc1ccc(N2CCN(C(=O)CCOC[C@@H]3CCCN3c3cn[nH]c(=O)c3C#N)CC2)nc1 [Example 127, 5-[(2S)-2-([3-[4-(5-cyanopyridin-2-yl)piperazin-1-yl]-3-oxopropoxy]methyl)pyrrolidin-1-yl]-3-oxo-2,3-dihydropyridazine-4-carbonitrile]",< 100
3,"N#Cc1ccc(N2CCN(C(=O)CCO[C@H]3CCC[C@@H]3Oc3cn[nH]c(=O)c3C(F)(F)F)CC2)nc1 (single isomer, unassigned) [Example 572 Isomer A]",< 100
4,"O=C(C[C@@H]1CC[C@@H]([C@@H]2CCCN2c2cn[nH]c(=O)c2C(F)(F)F)O1)N1CCN(c2ccc(Cl)cn2)CC1 [Example 148A, 5-[(2S)-2-[(2S,5S)-5-[2-[4-(5-chloropyridin-2-yl)piperazin-1-yl]-2-oxoethyl]oxolan-2-yl]pyrrolidin-1-yl]-4-(trifluoromethyl)-2,3-dihydropyridazin-3-one]",< 100
5,C[C@H](CC(=O)N1CCN(c2ccc(C#N)cn2)CC1)OCCNc1cn[nH]c(=O)c1C(F)(F)F [Example 528B],< 100
6,"O=C(CCOC[C@H](CCO)Nc1cn[nH]c(=O)c1C(F)(F)F)N1CCN(c2ncc(C(F)(F)F)cn2)CC1 [Example 643, (S)-5-((4-Hydroxy-1-(3-oxo-3-(4-(5-(trifluoromethyl)pyrimidin-2-yl)piperazin-1-yl)propoxy)butan-2-yl)amino)-4-(trifluoromethyl)pyridazin-3(2H)-one]",< 100
7,"C[C@@H](COCCC(=O)N1CCN(c2ccc(F)cn2)CC1)Nc1cn[nH]c(=O)c1C(F)(F)F [Example 684, (S)-5-((1-(3-(4-(5-Fluoropyridin-2-yl)piperazin-1-yl)-3-oxopropoxy)propan-2-yl)amino)-4-(trifluoromethyl)pyridazin-3(2H)-one]",< 100
8,"Cc1ccc(N2CCN(C(=O)c3cccc(OC[C@@H]4CCCN4c4cn[nH]c(=O)c4C(F)(F)F)c3)CC2)nc1 [Example 446, (S)-5-(2-((3-(4-(5-Methylpyridin-2-yl)piperazine-1-carbonyl)phenoxy)methyl)pyrrolidin-1-yl)-4-(trifluoromethyl)pyridazin-3(2H)-one]",< 100
9,"N#Cc1ccc(N2CCN(C(=O)COCCOCc3cccc4c3CN(c3cn[nH]c(=O)c3C(F)(F)F)C4)CC2)nc1 [Example 124, 6-(4-[2-[2-([2-[6-oxo-5-(trifluoromethyl)-1,6-dihydropyridazin-4-yl]-2,3-dihydro-1H-isoindol-4-yl]methoxy)ethoxy]acetyl]piperazin-1-yl)pyridine-3-carbonitrile]",< 100
10,"CC1CN(c2ccc(C#N)cn2)CCN1C(=O)c1cccc(OC[C@@H]2CCCN2c2cn[nH]c(=O)c2C(F)(F)F)c1 (stereo partly drawn) [Example 450, 6-(3-methyl-4-(3-(((S)-1-(6-Oxo-5-(trifluoromethyl)-1,6-dihydropyridazin-4-yl)pyrrolidin-2-yl)methoxy)benzoyl)piperazin-1-yl)nicotinonitrile]",< 100
11,N#Cc1ccc(N2CCN(C(=O)c3cccc(OC[C@@H]4C[C@H](O)CN4c4cn[nH]c(=O)c4C(F)(F)F)c3)CC2)nc1 [Example 51],< 100
12,"CC[C@@H](COCCC(=O)N1CCN(c2ncc(Cl)cn2)CC1)Nc1cn[nH]c(=O)c1C(F)(F)F [Example 588, 5-[[(2S)-1-[3-[4-(5-Chloropyrimidin-2-yl)piperazin-1-yl]-3-oxopropoxy]butan-2-yl]amino]-4-(trifluoromethyl)-2,3-dihydropyridazin-3-one]",< 100
13,"O=C(c1cccc(OC[C@@H]2c3ccccc3CN2c2cn[nH]c(=O)c2C(F)(F)F)c1)N1CCN(c2ncc(C(F)(F)F)cn2)CC1 [Example 390, (S)-4-(Trifluoromethyl)-5-(1-((3-(4-(5-(trifluoromethyl)pyrimidin-2-yl)piperazine-1-carbonyl)phenoxy)methyl)isoindolin-2-yl)pyridazin-3(2H)-one]",< 100
14,"COC[C@@H](COCCC(=O)N1CCN(c2ncc(C#N)s2)CC1)Nc1cn[nH]c(=O)c1C(F)(F)F [Example 713, (S)-2-(4-(3-(3-Methoxy-2-((6-oxo-5-(trifluoromethyl)-1,6-dihydropyridazin-4-yl)amino)propoxy)propanoyl)piperazin-1-yl)thiazole-5-carbonitrile]",< 100
15,"O=c1[nH]ncc(N2Cc3cccc(OCCN4CCNCC4)c3C2)c1C(F)(F)F [Example 227, 5-(4-(2-(Piperazin-1-yl)ethoxy)isoindolin-2-yl)-4-(trifluoromethyl)pyridazin-3(2H)-one]",< 100
16,"Cc1c(N2Cc3cccc(OC4CCNCC4)c3C2)cn[nH]c1=O [Example 175, 4-Methyl-5-(4-(piperidin-4-yloxy)isoindolin-2-yl)pyridazin-3(2H)-one]",≥ 1000
